Laboratory results as given in patent publication US20080299166A1, “NOVEL BIOMATERIALS, THEIR PREPARATION AND USE” (priority 2002, published 2008).

Test: In vitro release of Ketotifen-hydrogenfumarate from drug-loaded polymeric matrix
Type: physicochemical
Conditions: under the same conditions (stirred aqueous system)
Description: Two consecutive batches of the polymeric matrix were prepared at lab scale and loaded with the selected water-soluble investigational drug, Ketotifen hydrogenfumarate in accordance with the method described in Example 11. The in vitro release profile of the Ketotifen depot formulation was carried out as follows: […]
1 g of the dry polymeric matrix loaded with Ketotifen-hydrogenfumarate according to Example 11. was stirred with 600 r.p.m. in 50 ml of deionised water at 37° C. The released amount of Ketotifen-hydrogenfumarate was determined by HPLC.
Matrices with 8% Ketotifen load were prepared as described in Example 11. Using two different Hyaluronic acid containing reaction mixtures. One contained 1%, while the other 0.5% hyaluronic acid. […] (See Table 7.) The in vitro dissolution test was performed as described in Example 12.

For CN1CCC(=C2c3ccccc3CC(=O)c3sccc32)CC1 [non-formulated plain Ketotifen, Ketotifen-hydrogenfumarate], the “release compared with the matrix” value was “much faster”.
